In a melting point compilation (Tetko et al.; mined from patent text by program, amines drawn as free bases though some values may be those of a salt):

`COC(=O)c1cc(N)c(F)c(-c2ccc(Cl)cc2)n1` showed a melting point of 177 to 179 °C. `Cc1cc(-c2nc3cccnn3c2-c2ccnc(NC(=O)c3ccncc3)c2)ccc1F` gave a melting point of 219 to 220 °C. Work on `O=C(NS(=O)(=O)c1ccccc1-c1ccccc1)Oc1ccccc1` yielded a melting point of 114 to 117 °C. With `CC(C)(C)NCC(O)COc1ccccc1-c1csnn1` (centres undefined) the melting point was 99 to 100 °C. Work on `CCCC(=O)c1cc2c(=O)cc(C(=O)OCC)[nH]c2cc1C` yielded a melting point of 173 to 175 °C. `CSC(=C[N+](=O)[O-])NCCSCc1ccccn1` showed a melting point of 95.5 to 96.5 °C. Molecule `O=C(Nc1cccc2c1C(=O)c1c-2n[nH]c1-c1ccc(N2CCNCC2)cc1)NN1CCC[C@@H]1COCc1ccccc1` has a melting point of 207 °C. For `O=C1NC(=S)C(c2c[nH]c3ccccc23)=C1c1c[nH]c2ccccc12`, the melting point was 254 to 257 °C. `COC(=O)c1cc(C(=O)c2ncc3ccc(C(=O)O)cn23)ccc1[N+](=O)[O-]` gave a melting point of 290 °C. `CCOC(=O)Cc1ccc2c(c1)NC(NC(C)C)=NS2(=O)=O` gave a melting point of 182 to 184 °C. `Cn1c(=O)c2cccnc2n(C)c1=O` showed a melting point of 160 to 161 °C. `O=CNC[C@H]1CN(c2ccc(N3CCOCC3)c(F)c2)C(=O)O1` gave a melting point of 44 to 47 °C. For `Clc1cccc2[nH]c3c4ccccc4nc-3c(Cl)c12`, the melting point was 275 to 277 °C. Molecule `CC(C)=CCc1c(O)cc(O)cc1-c1cc2ccc(O)cc2o1` has a melting point of 82 to 83 °C. Work on `O=Cc1cccc(-c2cccs2)n1` yielded a melting point of 48 to 50 °C. `CCC(=O)NCCc1c[nH]c2ccc(OCc3ccccc3)cc12` showed a melting point of 110 to 112 °C. With `Nc1ccc(/C=C/C(=O)CC(=O)/C=C/c2ccc(O)cc2)cc1` the melting point was 212 to 217 °C. `COc1ccc(Cn2c(=O)n([C@H]3CC[C@H](O)CC3)c3ccc(C(F)(F)F)cc32)cc1OC` showed a melting point of 108 to 110 °C. With `C=CCCn1cnc2c1c(=O)[nH]c(=O)n2C` the melting point was 245 to 246 °C. In the case of `CCCCCC(C)C(C)c1cc(O)c2c3c(c(=O)oc2c1)CSC3` (centres undefined), the melting point is reported as 165 to 166 °C. For `Cc1c(C(=O)Nc2ccc(N3CCN(CCO)CC3)c(C#N)c2)cnn1-c1ccc(Cl)c(Cl)c1`, the melting point was 195 to 197 °C. Molecule `O=C(O)c1ccc(-c2cccc([N+](=O)[O-])c2)[nH]c1=O` has a melting point of 303 to 304 °C. `CC(C)[C@H](NC(=O)OCc1ccccc1)C(=O)NC(Cc1ccccc1)C(O)C(Cc1ccccc1)NC(=O)[C@@H](NC(=O)OCc1ccccn1)C(C)C` (some centres undefined) showed a melting point of 194 to 195 °C. `CN1c2c(oc(=O)n(-c3ncccn3)c2=O)-c2ccccc2S1(=O)=O` gave a melting point of 282 to 284 °C. Molecule `CC1(C)OC(=S)Nc2ccc(-c3ccccc3F)cc21` has a melting point of 171 to 173 °C. Work on `Cc1cc2ccc(Cl)cc2[nH]1` yielded a melting point of 120 to 122 °C. In the case of `CC(=O)OC[C@@H]1O[C@H](n2c(NC(C)C)nc3c(Cl)cccc32)[C@@H](OC(C)=O)[C@H]1OC(C)=O`, the melting point is reported as 225 to 227 °C. In the case of `CCCOc1ccccc1-c1nc2cc3ncn(CC(C)C4CCCCC4)c3cc2c(=O)[nH]1` (centres undefined), the melting point is reported as 178 to 180 °C. `CCCCN(C(=O)c1ccc(Cl)cc1)[C@@H]1CN(CC)C[C@H]1O` (relative stereo) showed a melting point of 96.5 to 98 °C. With `c1ccc(Cn2ncc3c(NCC4CCCCC4)c4ccccc4nc32)cc1` the melting point was 254 to 256 °C. `CS(=O)(=O)Nc1ccc(NCC(=O)N2CCC(Cc3ccc(Cl)cc3)CC2)cc1` showed a melting point of 70 °C. `CCOC(=O)C1=Cc2cc(-c3ccc(CC)cc3)ccc2OCC1` gave a melting point of 81 to 83 °C. For `O=c1[nH]c(=O)n(C2CC(O)C(CO)O2)cc1C(I)=CI` (centres undefined), the melting point was 103 to 105 °C. Molecule `CC(C)NC(=O)C(O)C(Oc1ccccc1)c1ccc(Cl)cc1` (centres undefined) has a melting point of 175 to 177 °C. In the case of `CC1(c2[nH]c3ccccc3c2C2=C(Cl)C(=O)C=C(Cl)C2=O)CC1`, the melting point is reported as 170 to 171 °C. `FC(F)(F)c1ccc(N=c2ccc3nc4ccccc4sc-3c2)cc1` gave a melting point of 207 to 208 °C. With `CN(CC(=O)O)Cc1cc(C(=O)c2cccs2)cc(C(C)(C)C)c1O` the melting point was 180 to 182 °C. Molecule `CC(C)N1CC(c2cc(CCc3ccccc3)ncn2)=C(O)C1=O` has a melting point of 156 to 159 °C. Molecule `COc1ncc(C(F)(F)F)cc1-c1cccn2nc(Nc3ccc(C4CCN(CC(=O)N(C)C)CC4)cc3)nc12` has a melting point of 122 to 124 °C. `CCOC(=O)C(=O)C1COc2ccccc2C1=O` (centres undefined) gave a melting point of 73 to 75 °C. With `O=C1N[C@H](C(=O)NCCCCO)CS1` the melting point was 81 to 83 °C. Molecule `CS(=O)(=O)OCCC1c2ccccc2C(=O)N1c1ccccc1` (centres undefined) has a melting point of 100 to 101 °C. Molecule `COc1ccc(Cn2c(O)nc3c(N)nc4ccccc4c32)cc1` has a melting point of over 260 °C. `COC(=O)c1c(C(C)C)nc(C(C)C)c(CN2CCC(N3CCCCC3)CC2)c1-c1ccc(F)cc1` gave a melting point of 59 to 61 °C. In the case of `Cc1cccc(-n2cnc(OC(C)C(=O)O)n2)c1` (centres undefined), the melting point is reported as 155 to 157 °C. With `CC(Br)C(=O)c1ccc2oc(=O)[nH]c2c1` (centres undefined) the melting point was 191 to 193 °C. For `Cn1cnc(C(c2ccc(Cl)cc2)c2ccc3c(c2)c(-c2ccccc2)cc(=O)n3C)c1` (centres undefined), the melting point was 150 °C. Molecule `COC(=O)C(C)(C)OCc1cc2nc(Cl)ccc2n1S(=O)(=O)c1ccc(C(C)C)cc1` has a melting point of 120 °C. `CC(C)OC(=O)c1ccc2c(c1)ncn2-c1cccc(Br)c1` showed a melting point of 102 to 104 °C.
